From patent US8877933B2, “Thermodynamically stable form of a tosylate salt” (Bayer Intellectual Property GmbH, priority 2004, dated 2014)

Experiment: Thermodynamic and storage stability of the crystal forms of the compound of the formula (I)
Assay type: physicochemical
Details: for thermodynamic stability of the crystal form: room temperature

SMILES	storage stability (after processing via suspensions)	thermodynamic stability of the crystal form
CNC(=O)c1cc(Oc2ccc(NC(=O)Nc3ccc(Cl)c(C(F)(F)F)c3)cc2)ccn1.Cc1ccc(S(=O)(=O)O)cc1 [polymorph I, 4-{4-[({[4-chloro-3-(trifluoromethyl)phenyl]amino}carbonyl)-amino]phenoxy}-N-methylpyridine-2-carboxamide tosylate in the polymorph I]	storage-stable even after processing via suspensions	thermodynamically stable at room temperature
CNC(=O)c1cc(Oc2ccc(NC(=O)Nc3ccc(Cl)c(C(F)(F)F)c3)cc2)ccn1.Cc1ccc(S(=O)(=O)O)cc1 [polymorph II, 4-{4-[({[4-Chloro-3-(trifluoromethyl)phenyl]amino}carbonyl)amino]phenoxy}-N-methylpyridine-2-carboxamide tosylate in the polymorph II]	–	metastable
